From patent publication US10155027B2, “Alpha-galactosidase A and 1-deoxygalactonojirimycin co-formulation for the treatment of fabry disease” (Amicus Therapeutics, Inc., priority 2012, dated 2018) come the findings set out here.

Series [1] can be described thus: Plasma PK of α-Gal A (JR-051) in WT mice following single IV infusion. In kind it is in vivo. The following applies: JR-051 1 mg/kg single IV infusion. On the procedure:
(§1) Table 1 describes the molar ratios of these compounds:
(§2) Plasma was collected at 0, 15, 30, 45, 60, and 90 min, and 24 hrs post-JR-051. Skin, heart, and kidney were collected 24 hrs post-JR-051. JR-051 plasma levels and tissue uptake were assessed by activity and Western blotting (see Methods section below). A comparison was made between JR-051 administered alone and JR-051 co-formulated with AT1001 groups.
Diluted plasma (1:50) in Lysis Buffer (˜10 μg total protein) was subjected to SDS-PAGE on 4-12% polyacrylamide gels (Invitrogen, Grand Island, N.Y.), transferred to nitrocellulose membranes (Invitrogen), and immunoblotted with rabbit anti-human α-Gal A primary antibody (1:2000 dilution; from Shire Pharmaceuticals, Cambridge, Mass.). Protein bands were detected using peroxidase-conjugated goat anti-rabbit secondary antibody (Jackson Immunosearch Labs, West Grove, Pa.) in combination with enhanced chemiluminescence (Pierce, Rockford, Ill.). Blots were scanned on an Image Station 4000R (Kodak, Rochester, N.Y.).

The nature of series [2]: Tissue uptake of α-Gal A (JR-051) in WT mice following single IV infusion. In kind it is in vivo. The settings on record: data not shown. On the procedure: as §1, §2
A BCA Protein Assay (Pierce, Rockford, Ill.) was used according to the manufacturer's instructions to determine total protein concentration in tissue lysates. […] For tissue Westerns exactly same procedure was followed as described above for plasma except that 50 μg tissue lysate was used.

For a further series, the system named is GL-3. The series is described as follows: GL-3 reduction in skin, heart and kidney of GLA KO mice, repeat IV bolus administration. In kind it is in vivo. The following applies: DGJ 0 mg/kg, 4 biweekly IV bolus. On the procedure:
Repeat administration of co-formulated product was tested in fourteen-week old GLA KO mice. The mice received four biweekly (once every two weeks) IV bolus injections of 0.5, 1 or 3 mg/kg α-Gal A (JR-051) alone, or co-formulated with 0.3, 1, 3 or 10 mg/kg of DGJ (AT1001). Plasma and tissue levels of α-Gal A, and tissue levels of GL-3 were measured.
Mouse tissues were homogenized in water (1:16.7 tissue:water) using a Fast Prep homogenizer (Pro Scientific, Thorofare, N.J.). Acetone:methanol (50:50) was added at 5× the volume of the homogenate. Samples were vortexed, re-homogenized in the Fast Prep system, and centrifuged at 10600 g for 10 minutes at room temperature. Each supernatant (200 μL of the upper organic portion) was prepared for solid phase extraction by addition of 200 μL dimethyl sulfoxide (DMSO), 50 μL lactosyl ceramide internal standard (from bovine buttermilk; Matreya, LLC, Pleasant Gap, Pa.) at a final concentration of 1.4 μg/mL, and 600 μL of water:methanol (13:87), followed by vortexing. Solid phase extraction was conducted on a pre-conditioned Bond Elut 40 μm, 100 mg C-18 column (Varian Inc, Palo Alto, Calif.) by washing with 67:23:10 methanol:acetone:water and elution with 1 mL of 9:1 acetone:methanol into silanized glass culture tubes containing 200 μL 0.2 mM sodium acetate in DMSO. Total GL-3 levels were determined from 20 μL of each sample extract by liquid chromatography-tandem mass spectroscopy (LC-MS/MS). LC was conducted using an acetone:methanol:acetonitrile (ACN) with sodium acetate binary mobile phase system (mobile phase A: 40:60 methanol:water with 0.1 mM sodium acetate; mobile phase B: 75:15:10 acetone:methanol:ACN with 0.1 mM sodium acetate) with a flow rate of 0.5 mL/min on a C18 column (Aqua 3 μm 100×3.0 mm, 125 A, Phenomenex, Torrance, Calif.). The final GL-3 elution condition was 90% mobile phase B. MS/MS analysis was carried out under positive ion mode (ESI+) and twelve different isoforms of GL-3 [C16:0, C18:0, C20:0, C22:1, C22:0, C23:0, C22:0(2OH), C24:2, C24:1, C24:0, C24:1(2OH), C24:0(2OH)] as well as internal standard were identified in each sample. The following transitions were monitored: m/z 1046.70→m/z 884.7 for C16:0; m/z 1074.8→m/z 912.8 for C18:0; m/z 1102.8→m/z 940.8 for C20:0; m/z 1128.8→m/z 966.8 for C22:1; m/z 1130.9→m/z 968.8 for C22:0; m/z 1144.9→m/z 982.8 for C23:0; m/z 1146.9→m/z 984.8 for C22:0(2OH); m/z 1154.9→m/z 992.8 for C24:2; m/z 1156.9→m/z 994.8 for C24:1; m/z 1158.9→m/z 996.9 for C24:0; m/z 1172.9→m/z 1010.8 for C24:1(2OH); m/z 1174.9→m/z 1012.8 for C24:0(2OH); and m/z 982.9→m/z 820.8 for the lactosyl ceramide internal standard. For quantitation, the area counts for each isoform were determined and then summed to obtain the total GL-3 area counts. The ratio of the total GL-3 area counts to that of the internal standard was determined and used to calculate the final concentration of GL-3 in each sample based on a linear least squares fit equation applied to an 11-point calibration curve prepared in DMSO. Total GL-3 measurements were normalized to the wet tissue weight of each sample.

The target of the next series is T1, α-Gal A (Homo sapiens, UniProt P06280).
T1 construct: purchased JCR Pharmaceuticals Co. Ltd, (Japan) JR-051; host or cells: CHO cells
T1 sequence (P06280 32-429): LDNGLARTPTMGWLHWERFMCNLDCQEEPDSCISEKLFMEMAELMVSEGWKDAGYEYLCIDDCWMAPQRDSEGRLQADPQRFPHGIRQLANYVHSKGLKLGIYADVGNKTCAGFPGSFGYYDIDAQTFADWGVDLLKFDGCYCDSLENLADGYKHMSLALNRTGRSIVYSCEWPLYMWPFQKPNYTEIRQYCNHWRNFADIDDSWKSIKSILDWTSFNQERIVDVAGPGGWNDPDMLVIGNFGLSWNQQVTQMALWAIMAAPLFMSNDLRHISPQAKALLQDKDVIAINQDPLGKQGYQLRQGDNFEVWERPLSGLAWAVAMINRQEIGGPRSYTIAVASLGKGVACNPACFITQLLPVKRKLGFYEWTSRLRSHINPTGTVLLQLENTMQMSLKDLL
Nature of the series: α-Gal A stability in whole blood ex vivo at 37° C. In kind it is in vitro ADME. The settings on record: 5 nM and 50 nM α-Gal A formulated without DGJ. As for the experimental part: The effect of co-formulating α-Gal A with DGJ on α-Gal A stability in blood ex vivo was examined. Time-dependent loss of α-Gal A activity in whole blood at 37° C. was determined. 5 nM and 50 nM α-Gal A was formulated with or without 10 μM DGJ.

The test system of series [3] is R301Q fibroblast cells derived from Fabry patients. Nature of the series: α-Gal A uptake and GL-3 reduction in R301Q Fabry patient fibroblasts. The settings on record: 0.5 nM enzyme co-formulated with 0.1-100 μM DGJ vs alone. In kind it is cell-based, human. As for the experimental part: The effect of co-formulating α-Gal A with DGJ on α-Gal A uptake and GL-3 reduction in R301Q and C52S fibroblast cells derived from Fabry patients was determined. 0.5 nM α-Gal A was tested alone or co-formulated with 0.1, 1.0, 10 or 100 μM DGJ. […] The graph bars represent the average of compiled data from 4 separate experiments.
Further reduction after co-incubation with DGJ is also similar between the two enzymes (˜40-50% of baseline). The graph bars represent the average of compiled data from 4 separate experiments.

With “JR-051: recombinant human α-Gal A produced in CHO cells transformed with an expression vector encoding the human α-Gal A gene (JCR Pharmaceuticals)”, in series [1], the AUC amounted to 17960 nmol/mL and the T1/2 amounted to 6.6 min. Besides, the “effect on α-Gal A uptake in skin” value in series [2] is reported as “no significant effect”. In the series with GL-3 (α-Gal A 0.5 mg/kg), the “GL-3% reduction in heart” value was 72.1%, the “GL-3% reduction in kidney” value is recorded as 42.7% and the “GL-3% reduction in skin” value turned out to be 85.7%. In the series on GL-3 (α-Gal A 1 mg/kg), the “GL-3% reduction in heart” value was 82.7%, the “GL-3% reduction in kidney” value came out at 54.9% and the “GL-3% reduction in skin” value stood at 90.7%. Further, in the series with GL-3 (α-Gal A 3 mg/kg), the “GL-3% reduction in heart” value is 93.7%, the “GL-3% reduction in kidney” value was determined as 69.5% and the “GL-3% reduction in skin” value stood at 97.4%. For the same molecule, the “half-life of α-Gal A in whole blood” value in the series with α-Gal A lay in the range of 4 to 5 h. For the same molecule, the “increase of enzyme uptake by DGJ” value in series [3] is listed as “up to 3 fold”.

B1: Fabrazyme: Agalsidase beta, produced by recombinant DNA technology in a Chinese hamster ovary (CHO) cell line; Genzyme Corporation (protein, UniProt P06280 32-429, looked up)
Alpha-galactosidase A: T1 sequence (P06280 32-429)
With B1, the “increase of enzyme uptake by DGJ” value in series [3] is “up to 4.6 fold”.
